# Reference: US6566084B1, “Catalytic antibodies against cocaine and methods of using and producing same” (priority 1992, dated 2003)
# How the values were obtained:
# [1] = in vivo; cited from earlier work
# [2] = Spontaneous hydrolysis of the methyl ester of cocaine to benzoyl ecgonine (HPLC); conditions: buffer, pH 7
# mAb 3B9 = assay: Inhibition of 3B9-catalyzed cocaine hydrolysis; assay type: biochemical, BALB/c mice; conditions: 1 mM
# mAb 6A12 = assay: Inhibition of 6A12-catalyzed cocaine hydrolysis; conditions: 1 mM
# [3] = equine BChE, ph7.4, published sources; cited from earlier work
compound,measurement,setting,value
COC(=O)[C@H]1[C@@H](OC(=O)c2ccccc2)C[C@@H]2CC[C@H]1N2C [cocaine],dose excreted unchanged in the urine,[1],< 10%
same,half-life,[2],20 h
CNC(=O)Oc1ccc2c(c1)[C@]1(C)CCN(C)[C@@H]1N2C [eserine],effect of serum esterase inhibitor on enzyme,mAb 3B9,unaffected
same,effect of serum esterase inhibitor on enzyme,mAb 6A12,unaffected
"BChE: equine butyrylcholinesterase, the principal cocaine esterase in serum",Kcat,[3],0.02 s⁻¹
same,Km,[3],38 µM
